# In US9730445B2, “Herbicidal compositions comprising 4-amino-3-chloro-5-fluoro-6-(4-chloro-2-fluoro-3-methoxyphenyl) pyridine-2-carboxylic acid or a derivative thereof and fungicides” (DOW AGROSCIENCES LLC, priority 2013, dated 2017):
# Values joined by “and” are separate entries in the source; they are usually repeats but may differ in a detail not shown here. Identical values can stand only once.
# Legend:
# FIMMI = experiment: In-water applied weed control, transplanted paddy rice (greenhouse); assay type: in vivo, Fimbristylis miliacea (L.) Vahl (globe fringerush)
# Description: (§1) Weed seeds or nutlets of the desired test plant species were planted in puddled soil (mud) prepared by mixing a shredded, non-sterilized mineral soil (50.5 percent silt, 25.5 percent clay, and 24 percent sand, with a pH of about 7.6 and an organic matter content of about 2.9 percent) and water at a 1:1 volumetric ratio. The prepared mud was dispensed in 365 mL aliquots into 16-ounce (oz.) non-perforated plastic pots with a surface area of 86.59 square centimeters (cm^2) leaving a headspace of 3 centimeters (cm) in each pot. Rice seeds were planted in Sun Gro MetroMix® 306 planting mixture, which typically has a pH of 6.0 to 6.8 and an organic matter content of about 30 percent, in plastic plug trays. Seedlings at the second or third leaf stage of growth were transplanted into 860 mL of mud contained in 32-oz. non-perforated plastic pots with a surface area of 86.59 cm^2 4 days prior to herbicide application. The paddy was created by filling the headspace of the pots with 2.5 to 3 cm of water. When required to ensure good germination and healthy plants, a fungicide treatment and/or other chemical or physical treatment was applied. The plants were grown for 4-22 days in a greenhouse with an approximate 14 hour (h) photoperiod which was maintained at about 29° C. during the day and about 26° C. during the night. Nutrients were added as Osmocote® (17:6:10, N:P:K+minor nutrients) at 2 g per cup. Water was added on a regular basis to maintain the paddy flood, and supplemental lighting was provided with overhead metal halide 1000-Watt lamps as necessary. The plants were employed for testing when they reached the first through fourth true leaf stage. […]
# (§2) Treatment requirements for each compound or fungicidal component were calculated based upon the rates being tested, the concentration of active ingredient or acid equivalent in the formulation, an application volume of 2 mL per component per pot, and an application area of 86.59 cm^2 per pot.
# (§3) For formulated compounds, a measured amount was placed in an individual 100 or 200 mL glass vial and was dissolved in a volume of 1.25% (v/v) Agri-Dex® crop oil concentrate to obtain application solutions. […]
# (§4) The treated plants and control plants were placed in a greenhouse as described above and water was added as needed to maintain a paddy flood. After approximately 3 weeks the condition of the test plants as compared with that of the untreated plants was determined visually and scored on a scale of 0 to 100 percent where 0 corresponds to no injury or growth inhibition and 100 corresponds to complete kill. […]
# LEFCH = experiment: as above; assay type: in vivo, Leptochloa chinensis (L.) Nees (Chinese sprangletop)
# Description: as §1, §2, §3, §4
# CYPIR = experiment: Postemergence foliar-applied weed control, direct-seeded rice (greenhouse); assay type: in vivo, Cyperus iria L. (rice flatsedge); conditions: 21 DAA
structure (smiles),measurement,setting,value
COc1c(Cl)ccc(-c2nc(C(=O)OCc3ccccc3)c(Cl)c(N)c2F)c1F [Compound A Benzyl Ester],Visual Weed Control (%) - 22 DAA FIMMI Obs,FIMMI; Compound A Benzyl Ester 4.38 g ae/ha,50%
same,Visual Weed Control (%) - 22 DAA FIMMI Obs,FIMMI; Compound A Benzyl Ester 8.75 g ae/ha,80%
same,Visual Weed Control (%) - 22 DAA FIMMI Obs,FIMMI; Compound A Benzyl Ester 17.5 g ae/ha,100%
same,Visual Weed Control (%) - 19 DAA LEFCH Obs,LEFCH; Compound A Benzyl Ester 8 g ae/ha,3%
same,Visual Weed Control (%) - 19 DAA LEFCH Obs,LEFCH; Compound A Benzyl Ester 16 g ae/ha,8%
same,Visual Weed Control (%) - 21 DAA CYPIR Obs,"CYPIR; r23-24 ester 16/32 g ae/ha alone, r25 pyroquilon 925 g ai/ha alone, r26-27 ester 16/32 + 925",85% and 99%
same,Visual Weed Control (%) - 21 DAA CYPIR Obs,"CYPIR; r26-27 ester 16/32 g ae/ha alone, r28-29 isoprothiolane 266/533 g ai/ha alone, r30-33 ester 16/32 at each of 266, 533",85% and 99%
same,Visual Weed Control (%)—21 DAA CYPIR Obs,"CYPIR; r29-30 ester 8/16 g ae/ha alone, r31-33 kasugamycin 17.5/35/70 g ai/ha alone, r34-39 ester 8/16 at each of 17.5, 35, 70",50% and 70%
same,Visual Weed Control (%)—21 DAA CYPIR Obs,"CYPIR; r45 ester 8 g ae/ha alone, r46-48 hexaconazole 25/50/100 g ai/ha alone, r49-51 ester 8 + 25/50/100",35%
